Results reported in US20230131966A1, “FUNGICIDAL AMIDES” (FMC Corporation, priority 2020, published 2023).

Assays:
Format in all cases: in vivo
[1] = test system: Puccinia recondita f. sp. tritici; assay: Test B: wheat leaf rust control on wheat seedlings
Plasmopara viticola = assay: Test D: grape downy mildew control on grape seedlings
Zymoseptoria tritici = assay: Test C: wheat leaf blotch control on wheat seedlings
[2] = test system: Erysiphe graminis f. sp. tritici; assay: Test G: wheat powdery mildew control on wheat seedlings
Phytophthora infestans = assay: whole plant or invertebrate; settings: tomato seedlings; for pest or weed control at 250 ppm: read-out: Test F disease control rating, 250 ppm
Phakopsora pachyrhizi = assay: Test A: Asian soybean rust control on soybean seedlings
Botrytis cinerea = assay: Test E: tomato Botrytis control on tomato seedlings
[3] = 250 ppm, wheat seedlings, 100 = 100% disease control, 0 = no control
[4] = 250 ppm, 100 = 100% disease control, 0 = no control
[5] = 250 ppm, soybean seedlings, 100 = 100% disease control, 0 = no control
[6] = Puccinia recondita, 250 ppm, wheat seedlings, 100 = 100% disease control, 0 = no control, read-out: Test B disease control rating
[7] = Plasmopara viticola, 250 ppm, 100 = 100% disease control, 0 = no control, read-out: Test D disease control rating
[8] = Zymoseptoria tritici, 250 ppm, wheat seedlings, 100 = 100% disease control, 0 = no control, read-out: Test C disease control rating
[9] = Blumeria graminis, 250 ppm, 100 = 100% disease control, 0 = no control, read-out: Test G disease control rating
[10] = Phytophthora infestans, in Solanum lycopersicum, 100 = 100% disease control, 0 = no control
[11] = Phakopsora pachyrhizi, 250 ppm, soybean seedlings, 100 = 100% disease control, 0 = no control, read-out: Test A disease control rating
[12] = Botrytis cinerea, 250 ppm, 100 = 100% disease control, 0 = no control, read-out: Test E disease control rating
[13] = rate 250 ppm, relative to the controls
[14] = 50 ppm, wheat seedlings, 100 = 100% disease control, 0 = no control
[15] = 50 ppm, 100 = 100% disease control, 0 = no control

Row | Compound | Test B disease control rating [1, 3] [%] | Test D disease control rating (Plasmopara viticola; [4]) [%] | Test C disease control rating (Zymoseptoria tritici; [3]) [%] | Test G disease control rating [2, 4] [%] | Test F disease control rating (Phytophthora infestans; [4]) [%] | Test A disease control rating (Phakopsora pachyrhizi; [5]) [%] | Test E disease control rating (Botrytis cinerea; [4]) [%] | further results
1 | C#Cc1ccc(C(C)OC(=O)C(C)NC(=O)c2nccc(OC)c2O)cc1 (mixture of isomers) [Compound 78] | 100 | 85 | 82 | 0 | 0 | 100 | 0 | 
2 | COc1ccnc(C(=O)NC(C)C(=O)OC(C)c2ccc(C#N)cc2)c1OC(C)=O (mixture of isomers) [Compound 33] | 0 | 66 | 87 | 0 | 0 | 13 | 0 | 
3 | COc1ccnc(C(=O)NC(C)C(=O)OC(C)c2ccc(C#N)cc2)c1O (mixture of isomers) [Compound 34] | 0 | 58 | 13 | 0 | 0 | 0 | 0 | 
4 | CCC(OC(=O)[C@H](C)NC(=O)c1nccc(OC)c1OC(C)=O)c1ccc(C2CCCCC2)cc1 (mixture of isomers) [Compound 100, N-[[3-(acetyloxy)-4-methoxy-2-pyridinyl]carbonyl]-L-alanine 1-(4-cyclohexylphenyl)propyl ester] |  |  |  |  |  |  |  | pest or weed control at 250 ppm [1, 6]: 99%; pest or weed control at 250 ppm (Plasmopara viticola; [7]): 32%; pest or weed control at 250 ppm (Zymoseptoria tritici; [8]): 88%; pest or weed control at 250 ppm [2, 9]: 0%; pest or weed control at 250 ppm (Phytophthora infestans; [10]): 0%; pest or weed control at 250 ppm (Phakopsora pachyrhizi; [11]): 100%; pest or weed control at 250 ppm (Botrytis cinerea; [12]): 0%
5 | CCC(OC(=O)[C@H](C)NC(=O)c1nccc(OC)c1OCOC(C)=O)C1CCCCC1 (single isomer, unassigned) [Compound 190] |  |  |  |  |  |  |  | Test B disease control rating (100 = 100% disease control, 0 = no disease control) [1, 13]: 74%; Test D disease control rating (100 = 100% disease control, 0 = no disease control) (Plasmopara viticola; [13]): 43%; Test C disease control rating (100 = 100% disease control, 0 = no disease control) (Zymoseptoria tritici; [13]): 46%; Test G disease control rating (100 = 100% disease control, 0 = no disease control) [2, 13]: 0%; Test F disease control rating (100 = 100% disease control, 0 = no disease control) (Phytophthora infestans; [13]): 0%; Test A disease control rating (100 = 100% disease control, 0 = no disease control) (Phakopsora pachyrhizi; [13]): 100%; Test E disease control rating (100 = 100% disease control, 0 = no disease control) (Botrytis cinerea; [13]): 0%
6 | COc1ccnc(C(=O)NC(C)C(=O)OC(C)c2cccc(C3CC3)c2)c1O (mixture of isomers) [Compound 158] | 100 | 94 | 73 | 0 | 0 | 100 | 0 | 
7 | CCC(OC(=O)[C@H](C)NC(=O)c1nccc(OC)c1O)C1CCCCC1 (single isomer, unassigned) [Compound 182] | 0 | 15 | 45 | 0 | 0 | 100 | 0 | 
8 | COc1ccnc(C(=O)N[C@@H](C)C(=O)OC(C)c2ccccc2-c2ccccc2)c1O (single isomer, unassigned) [Compound 2] | 55 | 63 | 73 | 0 | 0 | 99 | 0 | 
9 | CCC(OC(=O)[C@H](C)NC(=O)c1nccc(OC)c1OC(C)=O)C1CCCCC1 (mixture of isomers) [Compound 83, N-[[3-(acetyloxy)-4-methoxy-2-pyridinyl]carbonyl]-L-alanine 1-cyclohexylpropyl ester] |  |  |  |  |  |  |  | pest or weed control at 250 ppm [1, 6]: 100%; pest or weed control at 250 ppm (Plasmopara viticola; [7]): 27%; pest or weed control at 250 ppm (Zymoseptoria tritici; [8]): 97%; pest or weed control at 250 ppm [2, 9]: 0%; pest or weed control at 250 ppm (Phytophthora infestans; [10]): 0%; pest or weed control at 250 ppm (Phakopsora pachyrhizi; [11]): 100%; pest or weed control at 250 ppm (Botrytis cinerea; [12]): 0%
10 | COc1ccnc(C(=O)N[C@@H](C)C(=O)OC(C)c2ccc(C3CCCCC3)cc2)c1OCOC(=O)C(C)C (single isomer, unassigned) [Compound 145] | 99 | 22 | 94 | 0 | 0 | 100 | 0 | 
11 | COc1ccnc(C(=O)NC(C)C(=O)OC(C)c2ccc(C(F)(F)F)cc2)c1O (mixture of isomers) [Compound 36] | 99 | 72 | 81 | 0 | 0 | 100 | 0 | 
12 | COc1ccnc(C(=O)N[C@@H](C)C(=O)OC(C2CCCCC2)C2CCCCC2)c1OC(C)=O [Compound 46] | 68 | 22 | 68 | 91 | 0 | 100 | 0 | 
13 | COc1ccnc(C(=O)NC(C)C(=O)OC(C)c2ccc(F)cc2)c1OC(C)=O (mixture of isomers) [Compound 15] | 19 | 39 | 69 | 0 | 0 | 75 | 0 | 
14 | COc1ccnc(C(=O)NC(C)C(=O)OC(C)C2CCCCCC2)c1OC(C)=O (mixture of isomers) [Compound 101] |  |  |  |  |  |  |  | Test B disease control rating [1, 14]: 68%; Test D disease control rating (Plasmopara viticola; [15]): 86%; Test C disease control rating (Zymoseptoria tritici; [14]): 66%; Test G disease control rating [2, 15]: 0%; Test F disease control rating (Phytophthora infestans; [15]): 0%; Test A disease control rating (Phakopsora pachyrhizi; 50 ppm, soybean seedlings, 100 = 100% disease control, 0 = no control): 100%; Test E disease control rating (Botrytis cinerea; [15]): 0%
15 | COc1ccnc(C(=O)N[C@@H](C)C(=O)OC(C(C)C)C2CCCCC2)c1OC(C)=O (mixture of isomers) [Compound 62, N-[[3-(acetyloxy)-4-methoxy-2-pyridinyl]carbonyl]-L-alanine 1-cyclohexyl-2-methylpropyl ester] |  |  |  |  |  |  |  | pest or weed control at 50 ppm ([1]; Puccinia recondita, 50 ppm, wheat seedlings, 100 = 100% disease control, 0 = no control, read-out: Test B disease control rating): 93%; pest or weed control at 50 ppm (Plasmopara viticola; Plasmopara viticola, 50 ppm, 100 = 100% disease control, 0 = no control, read-out: Test D disease control rating): 74%; pest or weed control at 50 ppm (Zymoseptoria tritici; Zymoseptoria tritici, 50 ppm, wheat seedlings, 100 = 100% disease control, 0 = no control, read-out: Test C disease control rating): 14%; pest or weed control at 50 ppm ([2]; Blumeria graminis, 50 ppm, 100 = 100% disease control, 0 = no control, read-out: Test G disease control rating): 0%; pest or weed control at 50 ppm (Phytophthora infestans; Phytophthora infestans, in Solanum lycopersicum, read-out: Test F disease control rating, 50 ppm, 100 = 100% disease control, 0 = no control): 0%; pest or weed control at 50 ppm (Phakopsora pachyrhizi; Phakopsora pachyrhizi, 50 ppm, soybean seedlings, 100 = 100% disease control, 0 = no control, read-out: Test A disease control rating): 100%; pest or weed control at 50 ppm (Botrytis cinerea; Botrytis cinerea, 50 ppm, 100 = 100% disease control, 0 = no control, read-out: Test E disease control rating): 0%
16 | COc1ccnc(C(=O)N[C@@H](C)C(=O)OC(C)c2ccc(F)cc2Cc2ccccc2)c1OC(C)=O (single isomer, unassigned) [Compound 37] | 99 | 29 | 89 | 0 | 0 | 100 | 0 | 
17 | COc1ccnc(C(=O)N[C@@H](C)C(=O)OC(C)c2ccc(C3CCCCC3)cc2)c1OC(C)=O (mixture of isomers) [Compound 31, N-[[3-(acetyloxy)-4-methoxy-2-pyridinyl]carbonyl]-L-alanine 1-(4-cyclohexylphenyl)ethyl ester] |  |  |  |  |  |  |  | pest or weed control at 250 ppm [1, 6]: 100%; pest or weed control at 250 ppm (Plasmopara viticola; [7]): 1%; pest or weed control at 250 ppm (Zymoseptoria tritici; [8]): 87%; pest or weed control at 250 ppm [2, 9]: 73%; pest or weed control at 250 ppm (Phytophthora infestans; [10]): 0%; pest or weed control at 250 ppm (Phakopsora pachyrhizi; [11]): 100%; pest or weed control at 250 ppm (Botrytis cinerea; [12]): 0%
18 | COc1ccnc(C(=O)N[C@@H](C)C(=O)O[C@@H](C)c2ccc(C3CCCCC3)cc2)c1OC(C)=O [Compound 95, N-[[3-(acetyloxy)-4-methoxy-2-pyridinyl]carbonyl]-L-alanine (1S)-1-(4-cyclohexylphenyl)ethyl ester] |  |  |  |  |  |  |  | pest or weed control at 250 ppm [1, 6]: 100%; pest or weed control at 250 ppm (Plasmopara viticola; [7]): 1%; pest or weed control at 250 ppm (Zymoseptoria tritici; [8]): 100%; pest or weed control at 250 ppm [2, 9]: 0%; pest or weed control at 250 ppm (Phytophthora infestans; [10]): 0%; pest or weed control at 250 ppm (Phakopsora pachyrhizi; [11]): 100%; pest or weed control at 250 ppm (Botrytis cinerea; [12]): 0%
